The text below walks through data of article PMC8125885, “6,6′-Dihydroxythiobinupharidine (DTBN) Purified from Nuphar lutea Leaves Is an Inhibitor of Protein Kinase C Catalytic Activity” (Molecules, 2021).

One assay addresses T1, PKCε (Homo sapiens, UniProt Q02156).
T1 construct: made in house; host or cells: HEK-293T
T1 sequence (Q02156 1-737): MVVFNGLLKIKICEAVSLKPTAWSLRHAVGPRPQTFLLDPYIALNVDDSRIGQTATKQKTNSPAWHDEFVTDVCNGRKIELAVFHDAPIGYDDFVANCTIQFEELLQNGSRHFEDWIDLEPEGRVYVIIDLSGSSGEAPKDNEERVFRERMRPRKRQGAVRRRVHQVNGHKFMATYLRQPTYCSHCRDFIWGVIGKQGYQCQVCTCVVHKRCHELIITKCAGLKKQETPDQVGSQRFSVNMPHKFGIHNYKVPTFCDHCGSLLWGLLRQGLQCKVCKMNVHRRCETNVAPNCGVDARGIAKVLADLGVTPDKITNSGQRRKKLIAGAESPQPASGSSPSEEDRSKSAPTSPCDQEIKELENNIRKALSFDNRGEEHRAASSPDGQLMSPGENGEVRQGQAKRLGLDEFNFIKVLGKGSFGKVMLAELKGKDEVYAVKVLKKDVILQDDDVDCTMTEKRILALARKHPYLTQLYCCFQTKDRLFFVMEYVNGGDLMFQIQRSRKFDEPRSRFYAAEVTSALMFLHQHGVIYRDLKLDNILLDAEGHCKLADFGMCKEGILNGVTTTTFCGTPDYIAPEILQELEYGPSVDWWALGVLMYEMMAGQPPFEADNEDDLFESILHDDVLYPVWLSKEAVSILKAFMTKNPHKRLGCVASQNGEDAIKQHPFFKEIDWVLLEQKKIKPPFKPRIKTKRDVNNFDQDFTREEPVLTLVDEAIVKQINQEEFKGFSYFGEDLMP
The assay can be described thus: In vitro kinase assay (32P-MBP phosphorylation by immunoprecipitated HA-tagged PKC). It counts as biochemical. Particulars: MBP substrate, 100 μM cold ATP, 30 min at 32 °C. The method, then: (§1) To test the effect of DTBN on the activity of PKC isoforms, in vitro kinase assays were performed in a dose–response experiment, and results are presented in Figure 1. At these concentrations, the kinase activities of PKCs were inhibited by DTBN in a dose-dependent manner, having the most profound effect on conventional PKCα and PKCγ as compared to other PKCs tested (Figure 1 and Table 1). […] Immunoblotting was performed with antibodies against HA-tagged different PKCs and against Myelin Basic Protein (MBP) as a loading control.
(§2) Figure 1 DTBN downregulates PKC catalytic activity in a concentration-dependent manner. In vitro kinase assays of indicated PKC isoforms were performed, as described in Materials and Methods, utilizing MBP as a substrate. Before the initiation of the assay, DTBN was added to the samples at several concentrations. Following the termination of the assay, sample proteins were then resolved by SDS-PAGE and developed by autoradiography (a). p^32-MBP and MBP protein band signals were quantified using Image Lab software, and the relative amounts of p^32-MBP/MBP were presented in a line graph (b). Immunoblotting against HA and MBP to detect overexpressed PKC expression, and MBP, respectively, monitor equal loading of samples. Data are representative of two independent experiments. Molecular weight markers (in kDa) are indicated on the left, and arrows mark the positions of the indicated protein bands. IgH, Ig heavy chain.
(§3) PKC kinase assays were performed, as described, using myelin-basic protein (5 μg/100 μL) (MBP, #M1891, Sigma-Aldrich, St. Louis, MO, USA) as a substrate. Whole-cell lysates (75 μg per sample) of HEK-293T cells, each overexpressing different HA-tagged PKCs, were subjected to immunoprecipitation using protein A/G-agarose bead-immobilized anti-HA mAbs (#MMS-101R, BioLegend, San Diego, CA, USA). The immunoprecipitates were washed four times with Triton X-100-containing lysis buffer, and lastly with PKC kinase assay buffer (20 mM HEPES, pH 7.5, 10 mM MgCl2, and 0.1 mM EGTA). The immunoprecipitates were then equally divided to Eppendorf safe-lock tubes, followed by the addition of indicated concentrations of DTBN (μg/mL) and subsequent incubation in a kinase reaction mixture (10 mM ΜgCl2, 20 mM HEPES, 0.1 mM EGTA, 50 μg/mL phosphatidylserine, and 5μCi γ-32P-ATP (PerkinElmer, Waltham, MA, USA), also including 100 μM cold ATP and 1.5 mM CaCl2 (for conventional PKCs), and incubated for 30 min at 32 °C with gentle shaking. Reactions were terminated by the addition of 5× sample buffer and boiling for 5 min, followed by SDS-PAGE (10% acrylamide gels) under reducing conditions. Samples were then transferred to nitrocellulose membranes (Sigma-Aldrich) that were developed by immunoblotting and autoradiography. After the detection of the phosphorylated substrate (^32P-MBP) by autoradiography, the membranes were probed with anti-HA and anti-MBP mAbs (#SMI-99P, BioLegend, San Diego, CA, USA), (loading controls). ^32P-MBP and MBP protein bands were quantified using Image Lab software (5.2.1).

A further assay has as its target T2, PKCδ (Homo sapiens, UniProt Q05655).
T2 construct: made in house; host or cells: HEK-293T
The assay is described as above. The conditions noted are these: MBP substrate, 100 μM cold ATP, 30 min at 32 °C. It counts as biochemical. The method, then: as §1, §2, §3

The target in a further assay is T3, PKCα (Homo sapiens, UniProt P17252).
T3 construct: made in house; host or cells: HEK-293T
The assay is described as above. It counts as biochemical. The conditions noted are these: MBP substrate, 100 μM cold ATP, 30 min at 32 °C. As to the method:
as §1, §2, §3

The next assay has as its target T4, PKCζ (Homo sapiens, UniProt Q05513).
T4 construct: made in house; host or cells: HEK-293T
T4 sequence (Q05513 1-592): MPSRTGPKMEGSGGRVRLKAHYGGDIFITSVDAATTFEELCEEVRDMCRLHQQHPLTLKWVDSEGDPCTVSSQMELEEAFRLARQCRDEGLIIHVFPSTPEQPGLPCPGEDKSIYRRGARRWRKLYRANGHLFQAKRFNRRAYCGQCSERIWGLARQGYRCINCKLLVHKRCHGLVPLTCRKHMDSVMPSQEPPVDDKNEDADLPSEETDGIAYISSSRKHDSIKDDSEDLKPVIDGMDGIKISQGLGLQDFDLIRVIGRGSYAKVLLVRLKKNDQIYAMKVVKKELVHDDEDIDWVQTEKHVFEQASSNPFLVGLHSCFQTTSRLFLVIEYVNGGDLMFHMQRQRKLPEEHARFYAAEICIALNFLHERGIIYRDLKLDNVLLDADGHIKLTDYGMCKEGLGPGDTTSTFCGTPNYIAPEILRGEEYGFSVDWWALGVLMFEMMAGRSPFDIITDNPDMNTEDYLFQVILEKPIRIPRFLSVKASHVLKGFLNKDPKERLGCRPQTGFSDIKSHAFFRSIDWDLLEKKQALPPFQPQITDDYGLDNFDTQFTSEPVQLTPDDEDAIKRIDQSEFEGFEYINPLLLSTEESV
The description is as above. It counts as biochemical. The conditions noted are these: MBP substrate, 100 μM cold ATP, 30 min at 32 °C. The method, then:
as §1, §2, §3

The target in assay [1] is T5, PKCη (Homo sapiens, UniProt P24723). The assay is described as above. It counts as biochemical. The conditions noted are these: MBP substrate, 100 μM cold ATP, 30 min at 32 °C. The method, then: as §1, §2, §3
The target in another assay is T6, PKCγ (Homo sapiens, UniProt P05129).
T6 construct: made in house; host or cells: HEK-293T
The description is as above. It counts as biochemical. Particulars: MBP substrate, 100 μM cold ATP, 30 min at 32 °C. As to the method: as §1, §2, §3

In assay [2] the target is T5, PKCη. Also on record: method as in PMID 22078216. Particulars: co-crystallized inhibitor at PKCη; cited from earlier work.
[3] abbreviates: read-out: IC50 Values (μg/mL) (converted).

Each structure is given as a SMILES string. Like-named read-outs stand apart in the source and are kept apart here.

T5 sequence (P24723 whole entry): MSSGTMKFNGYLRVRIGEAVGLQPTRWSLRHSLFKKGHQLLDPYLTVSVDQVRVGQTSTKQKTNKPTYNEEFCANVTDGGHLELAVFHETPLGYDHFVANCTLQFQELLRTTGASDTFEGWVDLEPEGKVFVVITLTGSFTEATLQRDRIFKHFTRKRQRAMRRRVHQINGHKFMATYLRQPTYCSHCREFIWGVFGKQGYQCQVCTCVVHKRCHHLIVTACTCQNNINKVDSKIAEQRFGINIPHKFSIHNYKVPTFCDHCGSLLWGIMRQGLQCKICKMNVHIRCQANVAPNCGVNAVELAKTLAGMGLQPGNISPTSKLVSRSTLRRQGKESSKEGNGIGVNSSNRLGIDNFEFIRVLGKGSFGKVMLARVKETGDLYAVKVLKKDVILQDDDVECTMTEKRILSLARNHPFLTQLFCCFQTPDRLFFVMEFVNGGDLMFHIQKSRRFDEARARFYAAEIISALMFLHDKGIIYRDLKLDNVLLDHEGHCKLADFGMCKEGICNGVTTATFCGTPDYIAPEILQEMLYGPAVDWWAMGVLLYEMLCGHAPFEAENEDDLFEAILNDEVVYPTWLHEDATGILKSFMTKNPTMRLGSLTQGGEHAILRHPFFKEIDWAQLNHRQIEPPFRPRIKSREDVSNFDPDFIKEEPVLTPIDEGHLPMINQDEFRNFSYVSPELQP
T2 sequence (Q05655 whole entry): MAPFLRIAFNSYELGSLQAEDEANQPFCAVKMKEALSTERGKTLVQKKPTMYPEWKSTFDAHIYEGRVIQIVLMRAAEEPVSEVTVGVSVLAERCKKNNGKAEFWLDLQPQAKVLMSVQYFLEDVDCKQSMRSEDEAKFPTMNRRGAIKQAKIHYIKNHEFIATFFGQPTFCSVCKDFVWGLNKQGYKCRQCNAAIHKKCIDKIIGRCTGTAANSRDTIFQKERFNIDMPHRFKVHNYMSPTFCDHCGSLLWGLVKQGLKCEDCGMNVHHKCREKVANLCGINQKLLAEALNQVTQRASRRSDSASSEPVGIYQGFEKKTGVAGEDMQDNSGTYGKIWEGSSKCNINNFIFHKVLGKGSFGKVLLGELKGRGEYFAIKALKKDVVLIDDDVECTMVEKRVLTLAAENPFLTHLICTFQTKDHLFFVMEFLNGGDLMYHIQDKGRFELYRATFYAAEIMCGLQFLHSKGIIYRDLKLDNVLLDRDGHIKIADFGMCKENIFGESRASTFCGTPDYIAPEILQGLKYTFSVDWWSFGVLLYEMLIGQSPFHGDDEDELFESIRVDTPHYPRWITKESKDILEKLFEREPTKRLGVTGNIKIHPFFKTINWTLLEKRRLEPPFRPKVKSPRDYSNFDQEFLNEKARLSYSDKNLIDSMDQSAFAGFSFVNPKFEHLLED

On to `CC1CCC(c2ccoc2)N2C1CCC1(CSC3(CCC4C(C)CCC(c5ccoc5)N4C3O)C1)C2O` (stereo not shown) [DTBN, 6,6′-dihydroxythiobinupharidine], for which the IC50 is 14.2 µM at PKCε (read-out: IC50 Values); 14.2 µM on PKCε (setting [3]); over 19 µM at PKCδ (read-out: IC50 Values); over 19 µM on PKCδ (read-out: IC50 Values (μg/mL)); 0.174 µM on PKCα (read-out: IC50 Values); 0.175 µM on PKCα (setting [3]). Further, the IC50 is 18.6 µM on PKCζ (read-out: IC50 Values); 18.6 µM on PKCζ (setting [3]); over 19 µM at PKCη [1] (read-out: IC50 Values); over 19 µM on PKCη [1] (read-out: IC50 Values (μg/mL)); 0.168 µM at PKCγ (read-out: IC50 Values); 0.169 µM at PKCγ (setting [3]).

Turning to `c1cc2cnccc2cn1` [2,6-Naphthyridine], on PKCη [2], the IC50 is 0.009 µM.
